The target of series [1] is Cytochrome P450 2C9 (Homo sapiens, UniProt P11712). The series can be described thus: Inhibition of CYP2C9. The class given is ADME.
Series [2] in a line: Cmax in BALB/c mouse plasma at 10 mg/kg, po upto 24 hrs. The class given is ADME, organism-based. Also noted: dose 10 mg/kg, route oral.
Series [3] in a line: Metabolic stability in human microsomes assessed as compound remaining after 15 mins. The class given is ADME, Microsome. The conditions noted are these: read-out: Stability.
For series [4], the target named is Cytochrome P450 2C19 (Homo sapiens, UniProt P33261). Description: Inhibition of CYP2C19. The class given is ADME.
The target of series [5] is Cytochrome P450 3A4 (Homo sapiens, UniProt P08684). Description: Inhibition of CYP3A4. The class given is ADME.
The target of series [6] is Cytochrome P450 2D6 (Homo sapiens, UniProt P10635). Description: Inhibition of CYP2D6. In kind it is ADME.
Series [7] concerns the target Insulin receptor (Homo sapiens, UniProt P06213). Description: Inhibition of insulin receptor kinase.
Series [8] concerns the target T1, Cytochrome P450 1A2 (Homo sapiens, UniProt P05177).
T1 sequence (P05177 whole entry): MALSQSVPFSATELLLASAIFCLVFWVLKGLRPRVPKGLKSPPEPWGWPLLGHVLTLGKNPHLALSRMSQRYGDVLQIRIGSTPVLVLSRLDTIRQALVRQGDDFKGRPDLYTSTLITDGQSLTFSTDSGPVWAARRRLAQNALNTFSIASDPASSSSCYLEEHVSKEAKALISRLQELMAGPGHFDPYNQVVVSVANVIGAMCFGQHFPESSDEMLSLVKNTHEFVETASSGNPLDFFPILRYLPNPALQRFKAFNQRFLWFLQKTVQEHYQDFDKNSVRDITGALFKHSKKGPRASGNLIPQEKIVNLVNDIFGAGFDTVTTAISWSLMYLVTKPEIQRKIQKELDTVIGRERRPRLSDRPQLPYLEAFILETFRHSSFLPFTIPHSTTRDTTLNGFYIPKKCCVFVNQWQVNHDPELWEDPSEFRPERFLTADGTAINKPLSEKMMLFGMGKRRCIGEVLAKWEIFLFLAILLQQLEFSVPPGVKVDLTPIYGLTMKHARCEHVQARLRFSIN
Description: Inhibition of CYP1A2. In kind it is ADME.

Series [9] is described as follows: Metabolic stability in mouse liver microsomes assessed as compound remaining after 15 mins. (Liver microsomes are a subcellular fraction often used to study metabolism.)
Series [10] has as its system MEF. The series can be described thus: Antiproliferative activity against mouse MEF cells transfected with human IGF1R assessed as inhibition of IGF1-induced proliferation after 72 hrs by [14C]thymidine incorporation assay. In kind it is functional, cell-based. (In general: Uptake of a labelled nucleoside into DNA is a usual measure of proliferation.)
Series [11] can be described thus: AUC (0 to infinity) in BALB/c mouse at 10 mg/kg, po. The class given is ADME, organism-based. Also noted: time infinity, dose 10 mg/kg, route oral. Conditions: plasma.
Series [12] can be described thus: Oral bioavailability in BALB/c mouse at 10 mg/kg. The class given is ADME, organism-based. The conditions noted are these: in vivo.
Series [13] can be described thus: Solubility of compound. The class given is physicochemical.
For series [14], the target named is T2, Insulin-like growth factor 1 receptor (Homo sapiens, UniProt P08069). The series can be described thus: Inhibition of IGF-induced autophosphosphorylation of GST-tagged human IGF1R expressed in baculovirus-SF21 cell system preincubated for 5 mins by time resolved-fluorescent assay.
Series [15] concerns the target T2, Insulin-like growth factor 1 receptor. The series can be described thus: Inhibition of autophosphosphorylation of human IGF1R expressed in IGF1-stimulated MCF7 cells by ELISA. The class given is cell-based. On the technique in general: An ELISA detects its analyte on a solid surface through an enzyme-linked reagent.
Series [16] has the same target. Description: Inhibition of autophosphosphorylation of human IGF1R expressed in IGF1-stimulated MCF7 cells preincubated for 60 mins by ELISA. In kind it is cell-based.
The target is the same in series [17]. Description: Inhibition of IGF-induced autophosphosphorylation of GST-tagged human IGF1R expressed in baculovirus-SF21 cell system preincubated for 10 mins by time resolved-fluorescent assay.
Series [18] has the same target. Description: Inhibition of IGF-induced autophosphosphorylation of GST-tagged human IGF1R expressed in SF21 cells by time resolved-fluorescent assay.
Series [19] shares this target. Description: Inhibition of IGF-induced autophosphosphorylation of GST-tagged human IGF1R expressed in baculovirus-SF21 cell system preincubated for 60 mins by time resolved-fluorescent assay.
Series [20] has the same target. Description: Inhibition of IGF-induced autophosphosphorylation of GST-tagged human IGF1R expressed in baculovirus-SF21 cell system preincubated for 30 mins by time resolved-fluorescent assay.
Series [21] has the same target. The series can be described thus: Inhibition of IGF-induced autophosphosphorylation of GST-tagged human IGF1R expressed in SF21 cells after 10 mins by time resolved-fluorescent assay.

SMILES strings stand for the structures. Converted amounts (≈) assume the structure as drawn.

T2 sequence (P08069 31-736 limits assumed): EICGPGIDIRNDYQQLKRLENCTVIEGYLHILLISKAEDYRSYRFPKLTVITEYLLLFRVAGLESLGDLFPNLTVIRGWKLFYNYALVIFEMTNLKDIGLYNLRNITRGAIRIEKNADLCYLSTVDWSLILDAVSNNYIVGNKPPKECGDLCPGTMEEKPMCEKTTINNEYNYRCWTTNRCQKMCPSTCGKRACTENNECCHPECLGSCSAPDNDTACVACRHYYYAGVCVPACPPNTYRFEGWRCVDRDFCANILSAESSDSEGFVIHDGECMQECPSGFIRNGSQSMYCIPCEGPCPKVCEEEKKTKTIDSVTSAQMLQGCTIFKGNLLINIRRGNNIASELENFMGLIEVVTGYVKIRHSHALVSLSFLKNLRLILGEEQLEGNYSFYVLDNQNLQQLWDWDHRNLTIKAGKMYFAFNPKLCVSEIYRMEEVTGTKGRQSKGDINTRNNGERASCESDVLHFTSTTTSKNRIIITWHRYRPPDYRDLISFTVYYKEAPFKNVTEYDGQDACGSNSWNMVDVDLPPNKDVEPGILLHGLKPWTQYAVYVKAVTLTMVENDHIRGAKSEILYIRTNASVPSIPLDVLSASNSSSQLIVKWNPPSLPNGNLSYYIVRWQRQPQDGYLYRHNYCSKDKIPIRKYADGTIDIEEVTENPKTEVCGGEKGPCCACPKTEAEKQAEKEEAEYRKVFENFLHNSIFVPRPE
T2 sequence (P08069 741-1367 limits assumed): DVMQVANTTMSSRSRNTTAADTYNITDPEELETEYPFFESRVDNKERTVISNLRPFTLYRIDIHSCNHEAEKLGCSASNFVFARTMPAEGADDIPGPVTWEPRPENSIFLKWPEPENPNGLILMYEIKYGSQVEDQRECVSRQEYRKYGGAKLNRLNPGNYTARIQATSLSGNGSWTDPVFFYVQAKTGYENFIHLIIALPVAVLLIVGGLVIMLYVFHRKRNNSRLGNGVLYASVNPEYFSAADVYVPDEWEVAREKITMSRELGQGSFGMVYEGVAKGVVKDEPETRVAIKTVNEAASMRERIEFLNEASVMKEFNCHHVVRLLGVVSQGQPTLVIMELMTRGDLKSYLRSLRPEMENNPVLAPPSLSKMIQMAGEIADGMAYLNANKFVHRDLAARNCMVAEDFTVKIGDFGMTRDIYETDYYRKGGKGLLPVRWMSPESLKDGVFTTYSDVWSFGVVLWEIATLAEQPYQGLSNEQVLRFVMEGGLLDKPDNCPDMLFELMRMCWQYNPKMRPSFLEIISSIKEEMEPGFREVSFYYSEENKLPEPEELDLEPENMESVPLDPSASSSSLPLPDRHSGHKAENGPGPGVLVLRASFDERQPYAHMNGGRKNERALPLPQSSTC
Chain of Cytochrome P450 2D6 (P10635 whole entry): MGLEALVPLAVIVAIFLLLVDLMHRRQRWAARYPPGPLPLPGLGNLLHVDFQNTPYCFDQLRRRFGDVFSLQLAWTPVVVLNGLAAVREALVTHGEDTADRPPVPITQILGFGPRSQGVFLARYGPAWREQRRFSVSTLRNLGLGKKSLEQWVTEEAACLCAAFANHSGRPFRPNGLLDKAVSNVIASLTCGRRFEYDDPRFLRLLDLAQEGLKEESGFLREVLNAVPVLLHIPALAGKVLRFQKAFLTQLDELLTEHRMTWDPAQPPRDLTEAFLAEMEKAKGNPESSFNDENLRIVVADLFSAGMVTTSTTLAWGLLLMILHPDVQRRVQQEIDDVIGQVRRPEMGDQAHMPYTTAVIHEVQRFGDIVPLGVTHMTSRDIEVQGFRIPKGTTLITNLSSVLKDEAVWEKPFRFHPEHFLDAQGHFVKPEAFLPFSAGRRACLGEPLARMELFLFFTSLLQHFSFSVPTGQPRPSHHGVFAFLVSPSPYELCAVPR
Chain of Cytochrome P450 2C9 (P11712 whole entry): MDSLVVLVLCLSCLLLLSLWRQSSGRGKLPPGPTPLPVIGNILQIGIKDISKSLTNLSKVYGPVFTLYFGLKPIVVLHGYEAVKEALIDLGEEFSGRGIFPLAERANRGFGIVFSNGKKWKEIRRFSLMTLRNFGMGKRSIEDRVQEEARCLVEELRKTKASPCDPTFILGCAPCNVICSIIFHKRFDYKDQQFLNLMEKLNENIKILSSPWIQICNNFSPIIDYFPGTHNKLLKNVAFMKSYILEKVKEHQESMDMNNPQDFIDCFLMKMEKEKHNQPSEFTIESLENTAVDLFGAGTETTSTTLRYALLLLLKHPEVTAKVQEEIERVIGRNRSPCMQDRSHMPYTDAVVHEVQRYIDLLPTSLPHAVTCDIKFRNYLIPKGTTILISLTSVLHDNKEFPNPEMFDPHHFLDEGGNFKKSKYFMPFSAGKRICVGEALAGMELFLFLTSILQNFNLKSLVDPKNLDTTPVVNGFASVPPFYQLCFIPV
Chain of Insulin receptor (P06213 28-758 limits assumed): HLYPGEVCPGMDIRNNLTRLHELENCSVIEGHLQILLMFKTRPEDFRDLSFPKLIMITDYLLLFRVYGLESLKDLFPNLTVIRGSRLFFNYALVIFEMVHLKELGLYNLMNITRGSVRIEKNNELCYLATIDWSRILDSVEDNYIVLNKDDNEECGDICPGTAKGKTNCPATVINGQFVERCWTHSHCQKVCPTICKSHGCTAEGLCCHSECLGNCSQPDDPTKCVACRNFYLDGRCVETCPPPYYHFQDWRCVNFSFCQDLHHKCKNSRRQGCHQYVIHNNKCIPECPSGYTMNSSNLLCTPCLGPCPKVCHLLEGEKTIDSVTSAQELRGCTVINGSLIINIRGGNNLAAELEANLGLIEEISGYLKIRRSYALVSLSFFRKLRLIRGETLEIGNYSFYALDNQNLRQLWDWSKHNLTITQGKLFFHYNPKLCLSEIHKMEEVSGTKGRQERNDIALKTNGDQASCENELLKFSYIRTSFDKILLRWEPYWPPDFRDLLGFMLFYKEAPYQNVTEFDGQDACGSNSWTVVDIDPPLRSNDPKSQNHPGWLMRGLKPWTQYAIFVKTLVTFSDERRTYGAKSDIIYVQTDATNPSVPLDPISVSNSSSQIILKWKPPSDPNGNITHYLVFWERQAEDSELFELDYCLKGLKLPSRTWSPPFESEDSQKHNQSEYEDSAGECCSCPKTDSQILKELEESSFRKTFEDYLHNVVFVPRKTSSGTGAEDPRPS
Chain of Insulin receptor (P06213 763-1382 limits assumed): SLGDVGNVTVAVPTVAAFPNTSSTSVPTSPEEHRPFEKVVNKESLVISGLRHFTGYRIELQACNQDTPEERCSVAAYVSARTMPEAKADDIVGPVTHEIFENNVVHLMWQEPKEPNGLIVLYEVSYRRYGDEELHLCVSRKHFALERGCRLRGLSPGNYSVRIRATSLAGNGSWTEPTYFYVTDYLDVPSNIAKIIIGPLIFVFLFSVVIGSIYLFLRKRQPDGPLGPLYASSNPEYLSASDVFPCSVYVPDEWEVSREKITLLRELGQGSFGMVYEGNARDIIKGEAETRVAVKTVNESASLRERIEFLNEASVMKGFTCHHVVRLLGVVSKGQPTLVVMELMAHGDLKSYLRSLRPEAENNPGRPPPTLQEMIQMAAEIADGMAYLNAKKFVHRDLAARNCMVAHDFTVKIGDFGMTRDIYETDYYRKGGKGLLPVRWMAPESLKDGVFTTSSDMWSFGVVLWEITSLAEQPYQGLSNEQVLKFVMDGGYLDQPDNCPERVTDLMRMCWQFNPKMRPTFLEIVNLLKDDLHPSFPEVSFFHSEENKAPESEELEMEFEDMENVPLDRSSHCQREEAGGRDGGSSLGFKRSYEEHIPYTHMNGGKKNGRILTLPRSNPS
Chain of Cytochrome P450 3A4 (P08684 whole entry): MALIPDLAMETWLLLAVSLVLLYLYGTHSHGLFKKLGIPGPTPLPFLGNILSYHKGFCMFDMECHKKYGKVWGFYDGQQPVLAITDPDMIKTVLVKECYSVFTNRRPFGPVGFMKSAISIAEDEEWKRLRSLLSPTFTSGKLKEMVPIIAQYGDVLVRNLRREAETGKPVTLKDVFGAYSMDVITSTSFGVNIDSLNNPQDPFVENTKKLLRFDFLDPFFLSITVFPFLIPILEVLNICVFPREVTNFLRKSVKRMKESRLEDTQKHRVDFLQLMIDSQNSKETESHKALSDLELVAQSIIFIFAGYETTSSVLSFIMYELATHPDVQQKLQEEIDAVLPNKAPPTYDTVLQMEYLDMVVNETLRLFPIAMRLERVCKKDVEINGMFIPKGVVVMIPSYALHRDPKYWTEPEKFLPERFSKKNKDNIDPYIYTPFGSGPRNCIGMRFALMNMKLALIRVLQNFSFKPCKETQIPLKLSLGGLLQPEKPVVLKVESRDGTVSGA
Chain of Cytochrome P450 2C19 (P33261 whole entry): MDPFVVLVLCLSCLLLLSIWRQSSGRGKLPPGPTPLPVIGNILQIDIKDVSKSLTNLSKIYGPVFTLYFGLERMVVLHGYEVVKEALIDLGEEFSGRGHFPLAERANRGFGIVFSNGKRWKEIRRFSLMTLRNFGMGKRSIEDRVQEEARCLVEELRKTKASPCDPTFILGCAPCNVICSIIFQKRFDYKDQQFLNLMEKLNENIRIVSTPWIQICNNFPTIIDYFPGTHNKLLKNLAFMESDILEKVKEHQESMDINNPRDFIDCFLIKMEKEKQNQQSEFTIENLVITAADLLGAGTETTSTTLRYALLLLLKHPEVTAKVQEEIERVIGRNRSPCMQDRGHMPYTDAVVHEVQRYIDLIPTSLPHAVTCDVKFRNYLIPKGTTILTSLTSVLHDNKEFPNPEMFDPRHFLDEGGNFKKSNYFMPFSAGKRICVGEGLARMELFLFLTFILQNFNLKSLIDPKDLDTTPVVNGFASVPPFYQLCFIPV

By IC50 is commonly meant the concentration that inhibits the measured activity by half. One may read the Cmax as the peak of the concentration-time curve. What is called AUC(0-inf) is total exposure, with the tail of the curve extrapolated. What is called bioavailability is dose-corrected exposure relative to a reference, in per cent. Read a low bioavailability as little systemic uptake. For orientation: solubility means how much of the substance goes into solution per volume. As to `C[C@H]1C(=O)N(c2ccc(S(=O)(=O)C(F)(F)F)cc2)C(=O)N1Cc1ccnc2ccccc12`, the IC50 in series [1] was 700 nM; in series [4] it was over 15000 nM; in [5], over 15000 nM; in series [6], over 15000 nM; in series [7], 300 nM; in [8], over 15000 nM. The IC50 in series [10] is 300 nM. The compound further displayed a Cmax in [2] of 1490 ng/mL. The remaining at 0.25 h was determined as 82% in series [3] and 83% in [9]. For the same compound, the AUC(0-inf) in series [11] came to 13200 ng·h/mL. In series [12], this compound showed a bioavailability of over 100%. For the same compound, the concentration in solution in series [13] (solubility) was 9.9 µg/mL (≈ 21.4 µM). Take `COc1cc2c(-c3cc4cccnc4[nH]3)cn(C)c2cc1OC`: the IC50 in [14] is 34 nM; in series [15] it was 145 nM; in [16], 180 nM; in series [17], 34 nM; in series [10], 1600 nM; in series [18] it was 55 nM. Moreover, the IC50 in series [19] came out at 35 nM; in [20], 33 nM. On to `C[C@H]1C(=O)N(c2ccc([S+]([O-])C(F)(F)F)cc2)C(=O)N1Cc1ccnc2ccccc12` (stereo not given in full), for which, in series [18], the IC50 came to 2520 nM. `C[C@H]1C(=O)N(c2ccc(S(C)(=O)=O)cc2)C(=O)N1Cc1ccnc2ccccc12` yielded an IC50 in series [18] of over 100000 nM. On the same count and under the same terms, then `O=C1CN(Cc2ccnc3ccccc23)C(=O)N1c1ccc(S(=O)(=O)C(F)(F)F)cc1`, with 5400 nM; and `CC1(C)C(=O)N(c2ccc(S(=O)(=O)C(F)(F)F)cc2)C(=O)N1Cc1ccnc2ccccc12`, with 460 nM. Regarding `CC1(C)C(=O)N(c2ccc(SC(F)(F)F)cc2)C(=O)N1Cc1ccncc1`, the IC50 in series [15] came to 117 nM; in series [10] it was 282 nM; in [18] it was 264 nM; in series [21], 264 nM. Regarding `CC1(C)C(=O)N(c2ccc(SC(F)(F)F)cc2)C(=O)N1Cc1ccnc(N2CCCCC2)c1`, the IC50 in series [18] is over 10000 nM. `CC1(C)C(=O)N(c2ccc(SC(F)(F)F)cc2)C(=O)N1Cc1ccnc(N2CCOCC2)c1` returned an IC50 in series [18] of over 10000 nM. In series [18], `CN1CCN(c2cc(CN3C(=O)N(c4ccc(SC(F)(F)F)cc4)C(=O)C3(C)C)ccn2)CC1` gave an IC50 of over 10000 nM. Same read-out and setting: next, `CC1(C)C(=O)N(c2ccc(SC(F)(F)F)cc2)C(=O)N1Cc1ccnc(N2CCNCC2)c1`: over 10000 nM. In series [18], `CC1(C)C(=O)N(c2ccc(SC(F)(F)F)cc2)C(=O)N1Cc1ccnc(C#N)c1` came in with an IC50 of over 10000 nM. For the compound `CC1(C)C(=O)N(c2ccc(SC(F)(F)F)cc2)C(=O)N1Cc1ccnc(C(=O)O)c1`, in [18], the IC50 was over 10000 nM.

As for `CC1(C)C(=O)N(c2ccc(SC(F)(F)F)cc2)C(=O)N1Cc1ccnc(NS(C)(=O)=O)c1`, in series [18], the IC50 stood at 4710 nM. On the same count and under the same terms, then `CN(C)c1cc(CN2C(=O)N(c3ccc(SC(F)(F)F)cc3)C(=O)C2(C)C)ccn1`, with 4500 nM; and `CC1(C)C(=O)N(c2ccc(SC(F)(F)F)cc2)C(=O)N1Cc1ccnc(C(N)=O)c1`, with 2950 nM; and `CCOc1cc(CN2C(=O)N(c3ccc(SC(F)(F)F)cc3)C(=O)C2(C)C)ccn1`, with 1850 nM.

For `CC1(C)C(=O)N(c2ccc(SC(F)(F)F)cc2)C(=O)N1Cc1ccnc(NC2CCCCC2)c1`, half-maximal inhibition in series [18] (IC50) was put at 1240 nM. For the compound `COc1ccc(CNc2cc(CN3C(=O)N(c4ccc(SC(F)(F)F)cc4)C(=O)C3(C)C)ccn2)cc1`, it took 1090 nM to reach half-maximal inhibition in [18] (IC50). Still for that read-out and setting: then `CC1(C)C(=O)N(c2ccc(SC(F)(F)F)cc2)C(=O)N1Cc1ccnc(Nc2ccccc2)c1`, with 1060 nM; and `CC1(C)C(=O)N(c2ccc(SC(F)(F)F)cc2)C(=O)N1Cc1ccnc(NCc2ccccc2)c1`, with 1050 nM. Same read-out and setting: then `CC1(C)C(=O)N(c2ccc(SC(F)(F)F)cc2)C(=O)N1Cc1ccnc(Cl)c1`, with 995 nM; and `CC(C)(C)OC(=O)Nc1cc(CN2C(=O)N(c3ccc(SC(F)(F)F)cc3)C(=O)C2(C)C)ccn1`, with 784 nM; and `CNC(=O)c1cc(CN2C(=O)N(c3ccc(SC(F)(F)F)cc3)C(=O)C2(C)C)ccn1`, with 703 nM.

As to `CCc1cc(CN2C(=O)N(c3ccc(SC(F)(F)F)cc3)C(=O)C2(C)C)ccn1`, half-maximal inhibition in [18] (IC50) required 574 nM. On the same count and under the same terms, next, `CC(C)Nc1cc(CN2C(=O)N(c3ccc(SC(F)(F)F)cc3)C(=O)C2(C)C)ccn1`: 453 nM. As for `CNc1cc(CN2C(=O)N(c3ccc(SC(F)(F)F)cc3)C(=O)C2(C)C)ccn1`, the IC50 in [10] stood at 312 nM. As to `CCNc1cc(CN2C(=O)N(c3ccc(SC(F)(F)F)cc3)C(=O)C2(C)C)ccn1`, the IC50 in [15] was determined as 47 nM; in series [10], 104 nM; in series [18], 154 nM; in series [21], 154 nM. Regarding `CC(=O)Nc1cc(CN2C(=O)N(c3ccc(SC(F)(F)F)cc3)C(=O)C2(C)C)ccn1`, the IC50 is 175 nM in series [14]; 7 nM in series [15]; 7 nM in series [16]; 87 nM in [17]; 8 nM in series [10]; 98 nM in series [18]. Further, the results for the IC50 in series [19], in series [20] and in series [21] were 7 nM, 28 nM and 98 nM, respectively.

As for `CC1(C)C(=O)N(c2ccc(SC(F)(F)F)cc2)C(=O)N1Cc1ccnc(N)c1`, the IC50 in series [15] was 34 nM; in series [10], 97 nM; in [18] it was 92 nM; in series [21], 92 nM. Regarding `C[C@H]1C(=O)N(c2ccc(S(=O)(=O)C(F)(F)F)cc2)C(=O)N1Cc1ccncc1`, the IC50 in series [18] came to 1600 nM. Still for that read-out and setting: next, `C[C@H]1C(=O)N(c2ccc(S(=O)(=O)C(F)(F)F)cc2)C(=O)N1Cc1cccnc1`: 79700 nM; `C[C@H]1C(=O)N(c2ccc(S(=O)(=O)C(F)(F)F)cc2)C(=O)N1Cc1ccccn1`: over 100000 nM; `C[C@H]1C(=O)N(c2ccc(S(=O)(=O)C(F)(F)F)cc2)C(=O)N1Cc1cnc2ccccc2c1`: over 100000 nM.

Compound `C[C@H]1C(=O)N(c2ccc(S(=O)(=O)C(F)(F)F)cc2)C(=O)N1Cc1c[nH]cn1` showed an IC50 in series [18] of over 100000 nM. The same measure, in the same setting: then `C[C@H]1C(=O)N(c2ccc(S(=O)(=O)C(F)(F)F)cc2)C(=O)N1CC1CCNCC1`, with over 100000 nM. On the same count and under the same terms, next, `C[C@H]1C(=O)N(c2ccc(S(=O)(=O)C(F)(F)F)cc2)C(=O)N1Cc1ccccc1`: over 100000 nM; `C[C@H]1C(=O)N(c2ccc(S(=O)(=O)C(F)(F)F)cc2)C(=O)N1Cc1cc[n+]([O-])cc1`: over 100000 nM.

In series [18], `C[C@H]1C(=O)N(c2ccc(S(=O)(=O)C(F)(F)F)cc2)C(=O)N1Cc1cc[n+]([O-])c2ccccc12` yielded an IC50 of over 100000 nM.

Source of the values: ChEMBL document CHEMBL1759913, “Discovery of the first non-ATP competitive IGF-1R kinase inhibitors: advantages in comparison with competitive inhibitors” (Bioorg Med Chem Lett, 2011).
